From PMC3706558 (Biochemistry, 2013)

Key:
Mtb ICDH-1 [1] = target: T1, Mtb ICDH-1 (Mycobacterium tuberculosis, UniProt P9WKL1); test: biochemical
Mtb ICDH-1 [2] = target: T1, Mtb ICDH-1; test: NADPH formation at […] nm, dead-end inhibition; assay type: biochemical
[3] = tested on: NC(=O)c1ccc[n+]([C@@H]2O[C@H](COP(=O)(O)OP(=O)(O)OC[C@H]3O[C@@H](n4cnc5c(N)ncnc54)[C@H](OP(=O)(O)O)[C@@H]3O)[C@@H](O)[C@H]2O)c1; test: purified protein; conditions: pH 7.5

T1 sequence (P9WKL1 whole entry): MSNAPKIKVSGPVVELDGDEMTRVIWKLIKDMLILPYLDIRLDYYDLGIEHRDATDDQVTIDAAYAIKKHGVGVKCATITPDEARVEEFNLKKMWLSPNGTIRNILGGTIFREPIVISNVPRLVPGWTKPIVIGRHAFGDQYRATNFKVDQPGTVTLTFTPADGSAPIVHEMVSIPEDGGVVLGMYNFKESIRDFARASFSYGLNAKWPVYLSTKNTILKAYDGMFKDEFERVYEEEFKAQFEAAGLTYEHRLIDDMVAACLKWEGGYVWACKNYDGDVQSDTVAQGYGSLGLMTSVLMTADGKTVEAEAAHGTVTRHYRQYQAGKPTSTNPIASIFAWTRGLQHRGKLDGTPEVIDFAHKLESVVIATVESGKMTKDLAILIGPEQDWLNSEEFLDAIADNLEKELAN

Compound	Ki (Mtb ICDH-1 [1])	further results
NC(=O)C1=CN([C@@H]2O[C@H](COP(=O)(O)OP(=O)(O)OC[C@H]3O[C@@H](n4cnc5c(N)ncnc54)[C@H](OP(=O)(O)O)[C@@H]3O)[C@@H](O)[C@H]2O)C=CC1 [NADPH]	0.006 ± 0.002 mM	
O=C(O)C[C@H](O)C(=O)O [malate]		Ki (Mtb ICDH-1 [2]): 80 ± 15 mM
O=C(O)CCC(=O)C(=O)O [αKG]	22 ± 6 mM	
Mtb ICDH-1 (Mycobacterium tuberculosis H37Rv)		Km [3]: 15 ± 3 µM
